Laboratory results from patent US9101588B2, “Composition for lowering blood uric acid level” (TAISHO PHARMACEUTICAL CO., LTD., priority 2009, dated 2015).

Tests used:
Assay type in all cases: in vivo, human
[1] = system: subjects thought to have hyperuricemia; experiment: Test Example 3: randomized double blind test, serum uric acid level and uric acid clearance value, powder of Example 1 vs placebo, 14 days
Protocol: (§1) Sixteen subjects who were 20 years old or older and thought to have hyperuricemia under the following conditions were grouped into 2 each consisting of 8 subjects. A placebo and the powder prepared in Example 1 were administered to the respective groups twice a day by 2.04 g (2000 mg in terms of taurine amount) in a single dose for 14 days. The change in the uric acid level was checked by a randomized double blind test.
Before this test was started, screening tests were conducted twice. Subjects who met the condition of Condition below in the first screening test were subjected to the second screening. Subjects who met Condition again in the second screening test were subjected to this test. Furthermore, in this test, in order to check the change in a uric acid clearance value that would influence the change in the uric acid level, the uric acid level and the uric acid clearance value were measured four times, that is, 1 hour before administration, 1 hour after administration, 2 hours after administration, and 3 hours after administration when the taurine administration was started as well as similarly four times when the administration was completed. It should be noted that in order to make conditions equal between when the administration was started and when completed, the subjects were stayed in a hospital 3 days and 2 nights before each measurement, and had the same meals.
Incidentally, one case which was assigned to the taurine-administered group was terminated because another disease occurred during the 14-day administration period.
Condition: serum uric acid level was 7.0 mg/dL or above but below 9.0 mg/dL
In addition, as in Test Examples 1 and 2, each administration group was sub-grouped with a benchmark of the uric acid level of 7.0 mg/dL at the start. The percentage of change in the uric acid level was compared in each group.
Next, the change (ratio of change) in the uric acid clearance value, when the administration was started, representing uric acid-excretion efficiency was compared between the administration groups.
Moreover, the change (ratio of change) in the uric acid clearance value when the administration was completed was also compared between the administration groups.

[2] = system: subjects thought to have lifestyle diseases; experiment: Test Example 1: randomized double blind test, change in uric acid level, powder of Example 1 vs placebo, 14 days; conditions: for uric acid level degree changed MAX / uric acid level degree changed MEDIAN / uric acid level degree changed MIN / uric acid level degree changed MEAN: start to completion
Protocol: as §1, with “Forty” for “Sixteen”, “lifestyle diseases” for “hyperuricemia”, “20” for “8”
Before this test was started, screening tests were conducted twice. Subjects who met all the conditions of Conditions 1 to 3 below in the first screening test were subjected to the second screening. Further, since the amount of taurine in the body seemed to influence the result of this test, subjects who met Condition 4 in addition to Conditions 1 to 3 in the second screening test were subjected to this test. In each administration group, the result was sub-grouped with a benchmark of the uric acid level of 7.0 mg/dL which served as the index for hyperuricemia. The uric acid levels were compared between the groups.
Incidentally, one case which was assigned to the taurine-administered group was terminated because another disease occurred before the administration was started.
Condition 1: LDL cholesterol was 140 mg/dL or above
Condition 2: triglyceride was 150 mg/dL or above but below 400 mg/dL
Condition 3: total cholesterol was 220 mg/dL or above
Condition 4: an amount of urinary taurine excreted (in urine collected for 24 hours) was 1500 μmol or below
In addition, each administration group was sub-grouped with a benchmark of the uric acid level of 7.0 mg/dL at the start, and the percentage of change in the uric acid level was compared in each group.

[3] = system: subjects of Test Examples 1 to 3; experiment: Taurine-administered cases of Test Examples 1 to 3 summed, degree of uric acid level changed; conditions: for uric acid level degree changed MAX / uric acid level degree changed MEDIAN / uric acid level degree changed MIN / uric acid level degree changed MEAN: start to completion; for mean value of uric acid level decreased by / median of uric acid level decreased by: Table 6
Protocol: Next, degrees of serum uric acid levels changed before and after the administration in the taurine-administered cases of Test Examples 1 to 3 were lined up in the order of subjects having higher levels before the administration.
Moreover, the taurine-administered cases of Test Examples 1 to 3 were summed and sub-grouped with a benchmark of the uric acid level of 7.0 mg/dL at the start. Degrees of uric acid levels changed were compared between the sub-groups.

[4] = system: subjects thought to have hyperuricemia; experiment: Test Example 3: randomized double blind test, serum uric acid level and uric acid clearance value, powder of Example 1 vs placebo, 14 days; conditions: 1 hour before administration at start vs 3 hours before administration at completion, 2000 mg taurine twice a day, FIG. 1
[5] = start level 7.0 mg/dL or above, 4 cases
[6] = start level below 7.0 mg/dL, 3 cases
[7] = start level 7.0 mg/dL or above, 8 cases
[8] = start level 7.0 mg/dL or above, 8 cases, at completion (14 days)
[9] = start level 7.0 mg/dL or above, 8 cases, at start
[10] = start level below 7.0 mg/dL, 11 cases
[11] = start level below 7.0 mg/dL, 11 cases, at completion (14 days)
[12] = start level below 7.0 mg/dL, 11 cases, at start
[13] = subjects with uric acid level 7.0 mg/dL or above, Table 1
[14] = subjects with uric acid level below 7.0 mg/dL, Table 1
[15] = start level 7.0 mg/dL or above, 60 cases, at completion
[16] = start level 7.0 mg/dL or above, 60 cases, at start
[17] = start level 7.0 mg/dL or above, 60 cases
[18] = start level below 7.0 mg/dL, 87 cases, at completion
[19] = start level below 7.0 mg/dL, 87 cases, at start
[20] = start level below 7.0 mg/dL, 87 cases
[21] = subjects with uric acid level 7.0 mg/dL or above
[22] = subjects with uric acid level below 7.0 mg/dL

## NCCS(=O)(=O)O [Taurine, aminoethylsulfonic acid]
[1]; [5]
  Change in uric acid level: subjects who did not show decrease: 0 (0.0) ( ): %
  Change in uric acid level: subjects who showed decrease: 4 (100.0) ( ): %
[1]; start level 7.0 mg/dL or above, 4 cases, listed as taurine
  Change in uric acid level: subjects who showed decrease: 4 ( ): %
[1]; [6]
  Change in uric acid level: subjects who did not show decrease: 1 (33.3) ( ): %
  Change in uric acid level: subjects who showed decrease: 2 (66.7) ( ): %
[1]; when the administration was completed, 2 hours after the administration, FIG. 3
  uric acid clearance value, mean ratio of change (increase): ≥ 30%
[1]; when the administration was completed, 3 hours after the administration, FIG. 3
  uric acid clearance value, mean ratio of change (increase): ≥ 20%
[1]; when the administration was started, 2 hours after the administration, FIG. 2
  uric acid clearance value, mean ratio of change (increase): ≥ 40%
[1]; when the administration was started, 3 hours after the administration, FIG. 2
  uric acid clearance value, mean ratio of change (increase): ≥ 30%
[2]; [7]
  Change in uric acid level: subjects who did not show decrease: 0 (0.0) ( ): %
  Change in uric acid level: subjects who showed decrease: 8 (100.0) ( ): %
  uric acid level degree changed MAX: -0.3 mg/dL
  uric acid level degree changed MEDIAN: -0.70 mg/dL
  uric acid level degree changed MIN: -1.3 mg/dL
[2]; [8]
  uric acid level MAX: 8.3 mg/dL
  uric acid level MEAN: 7.36 mg/dL
  uric acid level MEDIAN: 7.50 mg/dL
  uric acid level MIN: 6.4 mg/dL
[2]; [9]
  uric acid level MAX: 9.1 mg/dL
  uric acid level MEDIAN: 8.30 mg/dL
  uric acid level MIN: 7.0 mg/dL
[2]; start level 7.0 mg/dL or above, 8 cases, at start, 2000 mg taurine twice a day, 14 days
  uric acid level MEAN: 8.11 mg/dL
[2]; start level 7.0 mg/dL or above, 8 cases, listed as taurine
  Change in uric acid level: subjects who showed decrease: 8 ( ): %
[2]; start level 7.0 mg/dL or above, 8 cases, one-sample t-test P < 0.001
  uric acid level degree changed MEAN: -0.75 mg/dL
[2]; start level 7.0 mg/dL or above, 95% CI −1.42 to −0.15, P = 0.020
  two-sample t-test estimation: difference in degree changed, taurine group vs placebo group: −0.78[−1.42 mg/dL
[2]; [10]
  Change in uric acid level: subjects who did not show decrease: 6 (54.5) ( ): %
  Change in uric acid level: subjects who showed decrease: 5 (45.5) ( ): %
  uric acid level degree changed MAX: 0.5 mg/dL
  uric acid level degree changed MEDIAN: 0.1 mg/dL
  uric acid level degree changed MIN: -0.9 mg/dL
[2]; [11]
  uric acid level MAX: 6.5 mg/dL
  uric acid level MEAN: 5.49 mg/dL
  uric acid level MEDIAN: 5.9 mg/dL
  uric acid level MIN: 1.1 mg/dL
[2]; [12]
  uric acid level MAX: 6.8 mg/dL
  uric acid level MEAN: 5.54 mg/dL
  uric acid level MEDIAN: 5.9 mg/dL
  uric acid level MIN: 0.8 mg/dL
[2]; start level below 7.0 mg/dL, 11 cases, one-sample t-test P = 0.747
  uric acid level degree changed MEAN: -0.05 mg/dL
[2]; start level below 7.0 mg/dL, 95% CI −0.44 to 0.18, P = 0.386
  two-sample t-test estimation: difference in degree changed, taurine group vs placebo group: −0.13[−0.44 mg/dL
[2]; [13]
  mean value of uric acid level decreased by: 0.75 mg/dL
  median of uric acid level decreased by: 0.70 mg/dL
[2]; [14]
  mean value of uric acid level decreased by: 0.05 mg/dL
  median of uric acid level increased by: 0.1 mg/dL
[2]; taurine group, 7.0 mg/dL or above vs below 7.0 mg/dL, 95% CI −1.09 to −0.31, P = 0.001
  two-sample t-test estimation: difference in degree changed between sub-groups: −0.70[−1.09 mg/dL
[3]; 7.0 mg/dL or above vs below 7.0 mg/dL, 95% CI −0.69 to −0.30, P < 0.001
  two-sample t-test estimation: difference in degree changed between sub-groups: −0.49[−0.69 mg/dL
[3]; results of Test Examples 1 to 3
  uric acid level after oral administration (conclusion): significant decrease
[3]; [15]
  uric acid level MAX: 10.6 mg/dL
  uric acid level MEAN: 7.33 mg/dL
  uric acid level MEDIAN: 7.35 mg/dL
  uric acid level MIN: 4.6 mg/dL
[3]; [16]
  uric acid level MAX: 10.8 mg/dL
  uric acid level MEDIAN: 7.80 mg/dL
  uric acid level MIN: 7.0 mg/dL
[3]; start level 7.0 mg/dL or above, 60 cases, at start, Test Examples 1 to 3 summed
  uric acid level MEAN: 7.95 mg/dL
[3]; [17]
  uric acid level degree changed MAX: 0.7 mg/dL
  uric acid level degree changed MEDIAN: -0.60 mg/dL
  uric acid level degree changed MIN: -2.6 mg/dL
[3]; start level 7.0 mg/dL or above, 60 cases, one-sample t-test P < 0.001
  uric acid level degree changed MEAN: -0.62 mg/dL
[3]; [18]
  uric acid level MAX: 7.6 mg/dL
  uric acid level MEAN: 5.54 mg/dL
  uric acid level MEDIAN: 5.5 mg/dL
  uric acid level MIN: 1.1 mg/dL
[3]; [19]
  uric acid level MAX: 6.9 mg/dL
  uric acid level MEAN: 5.67 mg/dL
  uric acid level MEDIAN: 5.8 mg/dL
  uric acid level MIN: 0.8 mg/dL
[3]; [20]
  uric acid level degree changed MAX: 1.0 mg/dL
  uric acid level degree changed MEDIAN: -0.1 mg/dL
  uric acid level degree changed MIN: -1.6 mg/dL
[3]; start level below 7.0 mg/dL, 87 cases, one-sample t-test P = 0.028
  uric acid level degree changed MEAN: -0.13 mg/dL
[3]; [21]
  mean value of uric acid level decreased by: 0.62 mg/dL
  median of uric acid level decreased by: 0.60 mg/dL
[3]; [22]
  mean value of uric acid level decreased by: 0.13 mg/dL
  median of uric acid level decreased by: 0.1 mg/dL
[4]
  mean value of serum uric acid level decreased by: 0.53 mg/dL
